Assay results reported in patent publication US11638424B2, “Mosquito attractant formulations and uses thereof” (priority 2017, dated 2023).

How the values were obtained:
A. gambiae sensu lato = test: Persistency (landing, probing and initiating feeding) within 5 min on cell-free meals; format: in vivo
Method: Fifty mosquitoes were isolated in three separate cages (8 cm internal diameter×10 cm in height) covered with netting, and fed on 1 ml of control RBCs, hRBCs or giRBCs, respectively. […] For each group, the number of fully fed mosquitoes compared to unfed controls was immediately recorded. In another set of feeding experiments, serum or a 0.9% physiological saline solution (NaCl, pH 7.4), either with or without 10 μM HMBPP, were offered to mosquitoes during a 5 min feeding window, and the number of fed mosquitoes recorded every minute for each cage separately. In the saline experiment, an additional treatment of 10 μM IPP in NaCl was included.

A. gambiae s.l. [1] = test: Olfactometer bioassay (larger Y-tube olfactometer / wind tunnel assay); format: in vivo; conditions: larger Y-tube olfactometer, FIG. 2A
Method: Behavioural experiments were performed using different odour sources with and without pulsed CO2 stimuli in a Plexiglas Y shaped olfactometer (9.5 cm i.d.×length of the central cylinder and two arms: 120/120/120 cm respectively), illuminated from above at 280 lx. A charcoal-filtered and humidified air stream (25±2° C., RH 65±2%) passed through stainless steel mesh screens at 30 cm s^−1 to generate a laminar flow in the olfactometer. Odors were introduced into the air stream of each arm at the downwind end. […] Odor sources consisted of either RBC-based treatments or headspace extracts. RBC-based treatments included RBCs alone, hRBCs, giRBCs or ippRBCs (RBCs supplemented with HMBPP, gametocytes or IPP), as well as RBCs with supernatants from gametocyte-infected RBCs, or RBCs supplemented with the synthetic odour blend. Headspace extracts collected from hRBCs and giRBCs were used. Treatments including RBCs were heated to 37° C. prior to being pumped (150 ml min^−1) into the airstream of each arm separately. The blend and headspace extracts were delivered to each arm via a wick dispenser. Carbon dioxide (Strandmöllen) was introduced into a plume generator that was placed behind the metal screens to create a homogenous-pulsed flow, which was regulated by a stimulus controller (SEC-2/b, Syntech, Löptin Germany). […]

RBCs = test: CO2 production of RBCs (GC-MS and quantitative respirometry, IRGA); format: cell-based, Human; conditions: 10 μM HMBPP, FIG. 2B
Method: RBCs (1 ml) were transferred to 4 ml glass vials closed with auto-sampler screw caps, and equilibrated in a thermostat at 38° C. for 15 min. Then, 2.5 μl of HMBPP or Nanopure water were added to the RBCs samples (final concentration: 10 μM HMBPP per sample). Volatiles were collected from the headspace using solid phase micro-extraction (SPME; Supelco, Bellmonte, Pa., USA) (M. J. Yang, el al., J. Chem. Educ., 74, 1130-1132 (1997) and A. K. Borg-Karlson and R. Mozuraitis, Naturforsch., C. 51, 599-602 (1996)). […] Electron ionisation mass spectra were determined at 70 eV with the ion source kept at 230° C. and mass spectra were obtained at mass to charge ratio (m/z) 29-400. […] A similar protocol was used for the quantification of CO2, with the mass spectral data and GC retention times being compared with emission from frozen CO2. The relative amounts of CO2 in arbitrary units were determined from the areas of the respective chromatogram peaks using single ion display mode at m/z 44±0.5 Da. The amounts of identified compounds were quantified by the use of extracted ion chromatograms, since they are very minute. […] The estimations were based on the very same quantifications given in ‘arbitrary area units’. […]

human Vγ9Vδ2 T-cells = conditions: cited from earlier work
A. gambiae s.l. [2] = conditions: in vivo; cited from earlier work

C/C(=C\COP(=O)(O)OP(=O)(O)O)CO [HMBPP, (E)-4-hydroxy-3-methyl-but-2-enyl pyrophosphate]
persistency / phagostimulatory effect in physiological salt solution (A. gambiae sensu lato; 0.9% NaCl, 10 μM, 5 min, FIG. 1F): generated a similar effect | percent persistency within 5 min (females that landed and initiated probing and feeding) (A. gambiae sensu lato; serum with 10 μM HMBPP (serum alone 20%), FIG. 1E): Approximately 80% | attraction of mosquitoes to supplemented RBCs versus RBCs (A. gambiae s.l. [1]): could mimic the attraction of mosquitoes to giRBCs | increase of the amount of CO2 released into the gas headspace above hRBC suspensions compared to RBCs alone (RBCs): 16% | activation of human Vγ9Vδ2 T-cells (human Vγ9Vδ2 T-cells): highly potent activator | innate immune responses in A. gambiae s.l. (A. gambiae s.l. [2]): trigger innate immune responses
